# Source: patent US20210308089A1, “METHODS OF TREATING AND/OR PREVENTING VIRAL INFECTIONS AND/OR DISEASES CAUSED BY VIRUSES IN A SUBJECT IN NEED THEREOF” (priority 2020, published 2021)
# Test system: patients of the REDUCE-IT and earlier EPA placebo-controlled trials
# Format: in vivo, human
# Settings: R-I
compound,measurement,value
"CC/C=C\C/C=C\C/C=C\C/C=C\C/C=C\CCCC(=O)OCC [icosapent ethyl, eicosapentaenoic acid ethyl ester]",ARR: Platelet count: PCS Low <100 × 10^3/uL,−0.6%
same,ARR: SBP High (≥160 mmHg),−1.7%
same,ARR: SBP High and rose ≥20 mmHg,−1.1%
same,ARR: SBP Low (≤90 mmHg),0.5%
same,ARR: SBP dropped ≥20 mmHg,2.6%
same,ARR: SBP low and dropped ≥20 mmHg,0.2%
same,ARR: SBP rose ≥20 mmHg,−0.7%
same,ARR: Urate high (Day 120),4.4%
same,ARR: Urate high (Day 360),3.9%
same,ARR: Urate high (Day 720),3.4%
same,ARR: Urate high (Day 1080),1.2%
same,ARR: Urate high (Day 1440),1.3%
same,ARR: Urate high (Day 1800),1.0%
same,ARR: Urate shift: normal to high (Day 120),2.8%
same,ARR: Urate shift: normal to high (Day 360),3.0%
same,ARR: Urate shift: normal to high (Day 720),2.5%
same,ARR: Urate shift: normal to high (Day 1080),0.8%
same,ARR: Urate shift: normal to high (Day 1440),0.6%
same,ARR: Urate shift: normal to high (Day 1800),0.2%
same,ARR: Urate shift: normal to low (Day 120),0.1%
same,ARR: Urate shift: normal to low (Day 360),−0.1%
same,ARR: Urate shift: normal to low (Day 720),−0.2%
same,ARR: Urate shift: normal to low (Day 1080),−0.1%
same,ARR: Urate shift: normal to low (Day 1440),−0.4%
same,ARR: Uric acid PCS High >7.5 mg/dL (Women),0.8%
same,ARR: Uric acid PCS High >8.0 mg/dL (Men),4.2%
same,ARR: Uric acid PCS Low <1.9 mg/dL (Women),0.0%
same,ARR: Uric acid PCS Low <2.5 mg/dL (Men),−0.2%
same,NNT: ALP high (Day 120),67
same,NNT: ALP high (Day 360),50
same,NNT: ALP high (Day 720),41
same,NNT: ALP high (Day 1080),33
same,NNT: ALP high (Day 1440),34
same,NNT: ALP high (Day 1800),37
same,NNT: ALP shift: normal to high (Day 120),78
same,NNT: ALP shift: normal to high (Day 360),54
same,NNT: ALP shift: normal to high (Day 720),39
same,NNT: ALP shift: normal to high (Day 1080),34
same,NNT: ALP shift: normal to high (Day 1440),37
same,NNT: ALP shift: normal to high (Day 1800),39
same,NNT: ALP shift: normal to low (Day 120),−267
same,NNT: ALP shift: normal to low (Day 360),−359
same,NNT: ALP shift: normal to low (Day 720),−252
same,NNT: ALP shift: normal to low (Day 1080),−360
same,NNT: ALP shift: normal to low (Day 1440),−956
same,NNT: Albumin high (Day 120),−133
same,NNT: Albumin high (Day 360),−138
same,NNT: Albumin high (Day 720),−156
same,NNT: Albumin high (Day 1080),−140
same,NNT: Albumin high (Day 1440),−132
same,NNT: Albumin shift: normal to high (Day 120),−123
same,NNT: Albumin shift: normal to high (Day 360),−137
same,NNT: Albumin shift: normal to high (Day 720),−140
same,NNT: Albumin shift: normal to high (Day 1080),−248
same,NNT: Albumin shift: normal to high (Day 1440),−145
same,NNT: Bilirubin >1x ULN to 2x ULN,−29
same,NNT: Bilirubin >2x ULN to 3x ULN,−497
same,NNT: Bilirubin high (Day 120),−42
same,NNT: Bilirubin high (Day 360),−50
same,NNT: Bilirubin high (Day 720),−38
same,NNT: Bilirubin high (Day 1080),−50
same,NNT: Bilirubin high (Day 1440),−40
same,NNT: Bilirubin high (Day 1800),−43
same,NNT: Bilirubin shift: normal to high (Day 120),−77
same,NNT: Bilirubin shift: normal to high (Day 360),−80
same,NNT: Bilirubin shift: normal to high (Day 720),−76
same,NNT: Bilirubin shift: normal to high (Day 1080),−95
same,NNT: Bilirubin shift: normal to high (Day 1440),−57
same,NNT: Bilirubin shift: normal to high (Day 1800),−81
same,NNT: Calcium high (Day 120),430
same,NNT: Calcium high (Day 360),1019
same,NNT: Calcium high (Day 720),325
same,NNT: Calcium low (Day 120),−1944
same,NNT: Calcium low (Day 360),−410
same,NNT: Calcium low (Day 720),−567
same,NNT: DBP High (≥100 mmHg),−165
same,NNT: DBP High and Rose ≥10 mmHg,−264
same,NNT: DBP Low (≤50 mmHG),−794
same,NNT: DBP Low and dropped ≥10 mmHg,−3916
same,NNT: DBP dropped ≥10 mmHG,−32
same,NNT: DBP rose ≥10 mmHg,158
same,NNT: High platelets (Day 720),−162
same,NNT: Low platelets (Day 360),54
same,NNT: Low platelets (Day 720),144
same,NNT: Low platelets (Day 1080),85
same,NNT: Platelet count: PCS Low <100 × 10^3/uL,166
same,NNT: SBP High (≥160 mmHg),58
same,NNT: SBP High and rose ≥20 mmHg,87
same,NNT: SBP Low (≤90 mmHg),−221
same,NNT: SBP dropped ≥20 mmHg,−38
same,NNT: SBP low and dropped ≥20 mmHg,−497
same,NNT: SBP rose ≥20 mmHg,140
same,NNT: Urate high (Day 120),−22
same,NNT: Urate high (Day 360),−26
same,NNT: Urate high (Day 720),−29
same,NNT: Urate high (Day 1080),−81
same,NNT: Urate high (Day 1440),−76
same,NNT: Urate high (Day 1800),−103
same,NNT: Urate shift: normal to high (Day 120),−36
same,NNT: Urate shift: normal to high (Day 360),−33
same,NNT: Urate shift: normal to high (Day 720),−39
same,NNT: Urate shift: normal to high (Day 1080),−127
same,NNT: Urate shift: normal to high (Day 1440),−160
same,NNT: Urate shift: normal to high (Day 1800),−422
same,NNT: Urate shift: normal to low (Day 120),−1647
same,NNT: Urate shift: normal to low (Day 360),1418
same,NNT: Urate shift: normal to low (Day 720),533
same,NNT: Urate shift: normal to low (Day 1080),740
same,NNT: Urate shift: normal to low (Day 1440),280
same,NNT: Uric acid PCS High >7.5 mg/dL (Women),−120
same,NNT: Uric acid PCS High >8.0 mg/dL (Men),−24
same,NNT: Uric acid PCS Low <1.9 mg/dL (Women),−1.58e+07
same,NNT: Uric acid PCS Low <2.5 mg/dL (Men),569
same,Placebo-Adjusted % Change: Alkaline phosphatase (Day 120),−10.4%
same,Placebo-Adjusted % Change: Alkaline phosphatase (Day 360),−12.5%
same,Placebo-Adjusted % Change: Alkaline phosphatase (Day 720),−12.6%
same,Placebo-Adjusted % Change: Alkaline phosphatase (Day 1080),−14.1%
same,Placebo-Adjusted % Change: Alkaline phosphatase (Day 1440),−13.1%
same,Placebo-Adjusted % Change: DBP (Day 120),−.9%
same,Placebo-Adjusted % Change: DBP (Day 360),−.8%
same,Placebo-Adjusted % Change: DBP (Day 720),−.6%
same,Placebo-Adjusted % Change: DBP (Day 1080),−.5%
same,Placebo-Adjusted % Change: DBP (Day 1440),−.4%
same,Placebo-Adjusted % Change: SBP (Day 120),−1%
same,Placebo-Adjusted % Change: SBP (Day 360),−1.1%
same,Placebo-Adjusted % Change: SBP (Day 720),−1%
same,Placebo-Adjusted % Change: SBP (Day 1080),−1.1%
same,Placebo-Adjusted % Change: SBP (Day 1440),−.9%
same,Placebo-Adjusted % Change: Urate (Day 120),+4.31%
same,Placebo-Adjusted % Change: Urate (Day 360),+4.07%
same,Placebo-Adjusted % Change: Urate (Day 720),+3.66%
same,Placebo-Adjusted % Change: Urate (Day 1080),+2.94%
same,Placebo-Adjusted % Change: Urate (Day 1440),+3.23%
same,Risk Ratio (95% CI): ALP high (Day 120),0.623 (0.485 to 0.801) 2
same,Risk Ratio (95% CI): ALP high (Day 360),0.542 (0.420 to 0.700) 3
same,Risk Ratio (95% CI): ALP high (Day 720),0.568 (0.449 to 0.717) 3
same,Risk Ratio (95% CI): ALP high (Day 1080),0.486 (0.375 to 0.630) 3
same,Risk Ratio (95% CI): ALP high (Day 1440),0.483 (0.362 to 0.644) 3
same,Risk Ratio (95% CI): ALP high (Day 1800),0.527 (0.362 to 0.767) 3
same,Risk Ratio (95% CI): ALP shift: normal to high (Day 120),0.401 (0.267 to 0.603) 3
same,Risk Ratio (95% CI): ALP shift: normal to high (Day 360),0.335 (0.227 to 0.497) 4
same,Risk Ratio (95% CI): ALP shift: normal to high (Day 720),0.397 (0.291 to 0.541) 4
